From patent US6476044B1, “Use of morphine derivatives as medicaments for the treatment of neuropathic problems” (Gruenenthal GmbH, priority 2000, dated 2002) come the findings set out here.

Counter-ions that a name gives are not always drawn. Like-named read-outs stand apart in the source and are kept apart here.

Assay [1] concerns the target T1, ORL1 receptor (Homo sapiens, UniProt P41146). The assay is described as follows: ORL1 reporter gene assay, agonist test (inhibition of cAMP-dependent luciferase formation). The class given is cell-based. More on the design: A cDNA coding for the ORL1 receptor was cloned using standard methods from THP-1 cells; expressed in transfected cells; host or cells: CHO-K1/pSE66/K9/pZeoORL17/K21. The following applies: agonist potency: concentration at semi-maximum inhibition of luciferase formation; CHO-K1 cells expressing human ORL1. An excerpt: (§1) The morphinan derivatives of the general formula I according to the invention were identified with a reporter gene system as ORL1 receptor agonists or as ORL1 receptor antagonists. This reporter gene system is based on the expression of the human ORL1 receptor in CHO-K1 cells, which carry a cAMP-sensitive luciferase gene (Wnendt et al., Regulatory Peptides, 80, 1999, p. 127 the entire disclosure of which is incorporated herein by reference). The formation of cAMP is induced by forskolin, an adenylate cyclase activator.
Also, they inhibit in a concentration-dependent manner luciferase formation due to the binding to the ORL1 receptor. The potency, expressed as the IC50 value, indicates the concentration at which the semi-maximum effect of the agonist is reached.
(§2) The reporter gene system was constructed as follows:
A cDNA coding for the ORL1 receptor was cloned using standard methods from THP-1 cells (European Cell Culture Collection, Porton Down, Great Britain) of a human monocyte cell line and integrated into the plasmid pZeoSV (Invitrogen, Leek, Netherlands). This plasmid, pZeoORL17, was used for the transfection of a cell line, CHO-K1/pSE66/K9, that contains the cAMP reporter plasmid pSE66. […]

The target in assay [2] is T1, ORL1 receptor. Kind of assay: ORL1 reporter gene assay, antagonist test (cAMP-sensitive luciferase, forskolin-induced, in presence of 10 nM nociceptin/orphanin FQ). The class given is cell-based. Also noted: A cDNA coding for the ORL1 receptor was cloned using standard methods from THP-1 cells; expressed in transfected cells; host or cells: CHO-K1/pSE66/K9/pZeoORL17/K21.
Description: as §1
The inhibition of luciferase formation due to the agonists is lifted to the extent that the antagonist binds to the ORL1 receptor. […] The effect of the antagonists is described by the pKB value.
as §2
A cDNA coding for the ORL1 receptor was cloned using standard methods from THP-1 cells (European Cell Culture Collection, Porton Down, Great Britain) of a human monocyte cell line and integrated into the plasmid pZeoSV (Invitrogen, Leek, Netherlands). This plasmid, pZeoORL17, was used for the transfection of a cell line, CHO-K1/pSE66/K9, that contains the cAMP reporter plasmid pSE66. The plasmid pSE66 was constructed on the basis of the plasmid pMAMneo-LUC (Clontech, Palo Alto, Calif.) by replacing the RSV promoter of this plasmid by a promoter region in which six CRE elements (cAMP-responsive elements, Comb et al., Nature, 323, 1986, pp. 353-356; Montminy et al., Proc. Natl. Acad. Sci. USA, 83, 1986, pp. 6682-6686; Short et al., J. Biol. Chem., 261, 1986, pp. 9721-9726) lie upstream of a promoter. The SV40 promoter derives from the plasmid pGL2-promoter (Promega, Madison, Wis.). The promoter region constructed in this way controls in the plasmid pSE66 the expression of the luciferase gene from pMAMneo-LUC. Furthermore, pSE66 carries a G418 resistance gene under the control of a further SV40 promoter. The cell line CHO-K1 (European Cell Culture Collection, Porton Down, Great Britain) was rendered stable with pSE66 and the clone CHO-K1/pSE66/K9 was selected for the transfection with pZeoORL17. […]

In assay [3] the target is T1, ORL1 receptor. Kind of assay: Receptor binding assay with 3H-nociceptin/orphanin FQ using membranes of recombinant CHO-ORL1 cells. More on the design: expressed in transfected cells; host or cells: recombinant CHO-ORL1 cells (membranes). On the procedure: Furthermore a receptor binding assay with ^3H-nociceptin/ orphanin FQ was carried out with the compounds according to the invention using membranes of recombinant CHO-ORL1 cells. This test system was implemented according to the method proposed by Ardati et al. (Mol. Pharmacol., 51, 1997, pp. 816-824). The concentration of ^3H-N/OFQ in these experiments was 0.5 nM. The binding assays were performed in each case with 20 μg of membrane protein per 200 μl of batch in 50 mM of Hepes, pH 7.4, 10 mM MgCl2 and 1 mM EDTA. The binding to the ORL1 receptor was determined using in each case 1 mg of WGA-SPA beads (Amersham-Pharmacia, Freiburg) by incubating the batch for one hour at room temperature followed by measurement in a Trilux scintillation counter (Wallac, Finland). The affinity is given as the Ki value.

The mark [4] stands for this setting: read-out: PKB ORL1 Reporter Gene Assay (converted).
Where [5] appears, read: 0.5 nM 3H-N/OFQ, CHO-ORL1 membranes, WGA-SPA beads, one hour at room temperature, read-out: Ki (nM) ORL1 Binding Assay.

T1 sequence (P41146 whole entry): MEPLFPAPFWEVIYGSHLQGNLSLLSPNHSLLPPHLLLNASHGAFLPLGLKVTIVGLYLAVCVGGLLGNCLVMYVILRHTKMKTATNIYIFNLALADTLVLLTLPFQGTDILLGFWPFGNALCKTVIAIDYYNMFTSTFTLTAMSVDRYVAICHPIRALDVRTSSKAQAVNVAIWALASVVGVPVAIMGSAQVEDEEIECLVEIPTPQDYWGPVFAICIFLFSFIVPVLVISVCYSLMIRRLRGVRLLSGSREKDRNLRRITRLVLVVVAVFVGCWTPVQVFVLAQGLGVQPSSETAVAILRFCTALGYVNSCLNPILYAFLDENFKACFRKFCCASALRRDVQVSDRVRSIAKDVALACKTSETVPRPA

On to “17-cyclopropylmethyl-6,7-didehydro-4,5α-epoxy-14-hydroxy-3-benzyloxy-1′-(p-methoxycarbonylmethylphenyl)-indolo-[6,7:2,′3′]-morphinan hydrochloride [Example 5]”, for which the IC50 (commonly the point on the concentration scale where inhibition reaches its midpoint) at ORL1 receptor [1] was found to be 25.8 nM.
As to `C=CCN1CCC23c4c5ccc(O)c4OC2c2c(c4ccccc4n2Cc2cccc(Cl)c2)CC3(OCc2cccc(Cl)c2)C1C5` (stereo not drawn) [Example 2, 17-allyl-6,7-didehydro-4,5α-epoxy-3-hydroxy-14-(m-chloromethoxyphenyl)1′-(m-chlorobenzyl)indolo[6,7:2,′3′]-morphinan hydrochloride], at ORL1 receptor [2] (setting [4]), the Kb is 0.102 µM. Further, on ORL1 receptor [3] (setting [5]), the Ki (in general, a measure of affinity in units of concentration, obtained from inhibition or displacement) came to 1080 nM.
Take `C=CCN1CCC23c4c5ccc(O)c4OC2c2c(c4ccccc4n2Cc2ccccc2Cl)CC3(O)C1C5` (stereo not drawn) [Example 1, 17-allyl-6,7-didehydro-4,5α-epoxy-3,14-dihydroxy-1′-(o-chlorobenzyl)indolo-[6,7:2,′3′]-morphinan hydrochloride]: at ORL1 receptor [2], the Kb is 0.0427 µM. Besides, the inhibitory constant (Ki) at ORL1 receptor [3] turned out to be 449 nM.
Take “17-cyclopropylmethyl-6,7-didehydro-4,5α-epoxy-3-hydroxy-14-(methoxynaphthalene)1′-(β-methylnaphthalene)indolo-[6,7:2,′3′]-morphinan hydrochloride [Example 4]”: the IC50 on ORL1 receptor [1] amounted to 31.2 nM. Further, the inhibition constant Ki at ORL1 receptor [3] (setting [5]) was found to be 982 nM.
On to `Oc1ccc2c3c1OC1c4c(c5ccccc5n4Cc4ccccc4Cl)CC4(OCc5ccccc5Cl)C(C2)N(CC2CC2)CCC314` (stereo not drawn) [Example 3, 17-cyclopropylmethyl-6,7-didehydro-4,5α-epoxy-3-hydroxy-14-(o-chloromethoxyphenyl)1′-(o-chlorobenzyl)-indolo[6,7:2,′3′]-morphinan hydrochloride], for which the Kb on ORL1 receptor [2] (setting [4]) is 0.407 µM. The Ki on ORL1 receptor [3] (setting [5]) amounted to 718 nM.
